Measured values: patent US20100240040A1, “METHOD FOR SCREENING FOR SELECTIVE MODULATOR OF THE NF-KB PATHWAY ACTIVATION” (INSTITUT PASTEUR, priority 2007, published 2010)
Where a SMILES comes first, the peptide text is derived from it. Where no end group is shown, it is not given here. The star is where a group is joined. BODIPYFLEthylmaleimide = Cc1cc(C)n2c1C=C1C=CC(CCC(=O)NCCN3C(=O)CC(*)C3=O)=[N+]1[B-]2(F)F; Bodipy = not defined here

Key:
[1] = molecular target: T1, spCC2-LZ (MOD of NEMO) (Mus musculus, UniProt O88522); assay: Fluorescence anisotropy binding of labelled peptide to spCC2-LZ; conditions: labelled peptide 10 μM, increasing spCC2-LZ; read-out: dissociation constant for spCC2-LZ
T1 construct: spCC2-LZ, synthetic polypeptide subdomain CC2-LZ; made in house; host or cells: chemical synthesis
Protocol: Anisotropy measurements were performed with a QuantaMaster® fluorometer (PTI), equipped with polarizing filters for excitation and emission, and using a photomultiplier tube in the L-configuration. All experiments were carried out in a microcuvette (60 μl) at 22° C., with excitation and emission wavelengths at 495 and 513 nm. The band pass of the excitation and emission wavelengths was 2 and 4 nm, respectively. Steady-state fluorescence anisotropy, expressed as millianisotropy units was measured as described Agou et al., 2004a. All measurements were carried out in a 20 mM isoionic buffer pH 8 (10 mM acetic acide, 10 mM MES, 20 mM Tris), containing 20 mM KCl. Each data point is the result of 20 recording taken over a 2-min period. To analyse whether DR NLM binds the MOD of NEMO, fluorescent labelled BA-DR NLM (10 μM) was incubated with an increasing concentrations of spCC2-LZ and the complex formation was monitored by fluorescence polarization (P) and results are expressed as anisotropy (A) according to the formula A=2P/(3-P). The concentration of spCC2-LZ was determining by amino acid analysis (Vinolo et al; 2006). Data points were fitted to the binding isotherm equation which gives a dissociation constant of 17 μM.

[2] = molecular target: T2, NEMO oligomers (Flag-NEMO/GFP-NEMO) (Mus musculus, UniProt O88522, A144V/E216G/P360T/S248N); assay: Inhibition of NEMO oligomerization in cells (GFP-NEMO/Flag-NEMO co-transfected 293T cells); format: cell-based, murine; conditions: 20 μM peptide
T2 construct: expressed in transfected cells; host or cells: 293T (human embryonal kidney), transient co-transfection
Protocol: 293T cells were transiently co-transfected by calcium-phosphate-DNA precipitation method with 2 μg of a plasmid pcDNA3 (Invitrogen) containing the sequence of FLAG-NEMO (pcDNA3-Flag-NEMO of sequence SEQ ID NO: 24) and 0.7 μg of a plasmid pcDNA3 containing the sequence of GFP-NEMO (pcDNA3-GFP-NEMO of sequence SEQ ID NO: 26). Empty vector is added up to a total amount of DNA of 4 μg per 6 cm dish. 24 h after transfection, cells were resuspended and incubated with or without 20 μM of peptides (A-NLM or A-DR NLM) for 7 h at 37° C. Cells were resuspended and washed twice with PBS to remove excess peptides and lysed in 150 μl of lysis buffer containing a protease inhibitor mixture as indicated above (Example 1.D). Lysates were clarified at 15 000×g at 4° C. for 20 min. The amount of proteins in the clarified lysate is determined by the Bradford method with the kit DC Biorad. 100 μg of total proteins were diluted in 200 μl of interaction buffer (50 mM TrisHCl pH 7.5, 1% triton X100, 1 mM DTE, 300 mM NaCl) and incubated 1 h at 4° C. with 40 μl of agarose anti-Flag M2 beads (Sigma). The oligomers Flag-NEMO/GFP-NEMO were pulled down with the anti-Flag M2 beads and washed twice with the interaction buffer. The fluorescence of GFP-NEMO were directly read on the beads with a fluorescence microplate reader SAFAS and the clarified lysates were analysed by Western blotting using anti-Flag, anti-GFP and anti-NDPK-B antibodies (Kraeft et al., 1996; Exp Cell Res; 227:63-69) to normalize the results.
In order to better analyze the molecular mechanism of the inhibition of the NF-κB pathway by DR NLM peptide, the Inventors have developed an assay to probe NEMO oligomerization in cells as described in Example 1.I (see FIG. 5 for an overview of the cell-based assay). For this, two plasmids were used, expressing respectively GFP-NEMO and Flag-NEMO fusion proteins. The plasmids were cotransfected in human 293T cells to overexpress exogenous GFP-NEMO and Flag-NEMO fusion proteins and enforce NEMO oligomerization. The cells were then submitted to detergent lysis and Flag-NEMO proteins were immunopurified using anti-Flag agarose beads and Flag peptide as described in Example 1.I. The fluorescence associated with beads that results from an association of Flag-NEMO with GFP-NEMO subunits within hetero-oligomers allow an estimate of the amount of oligomers present in the cellular extracts.

[3] = molecular target: T3, Lys63-linked polyubiquitin chains (Homo sapiens, UniProt P0CG47); assay: In vitro binding assay by fluorescence polarization to polyubiquitin chains; conditions: tag-free peptide
T3 construct: the Lys63-linked polyubiquitin chains; purchased Boston Biochem

[4] = molecular target: T4, CC2-LZ interaction with cellular polyubiquitinylated proteins (Mus musculus, UniProt O88522); assay: Pull-down of polyubiquitinylated proteins from JM4.5.2 extracts with biotinylated CC2-LZ, anti-ubiquitin Western blot; format: biochemical; conditions: 20 μM peptide, extracts of TNF-α stimulated JM4.5.2 cells
T4 construct: made in house; host or cells: chemical synthesis (bait); crude extract of JM4.5.2 cells with or without TNFα (partners)
Protocol: 24·10^7 JM4.5.2 cells were stimulated or not with 10 ng/ml of TNFα for 10 minutes at 37° C., washed twice with cold PBS and lysed in 900 μl of lysis buffer containing a protease inhibitor mixture as indicated in Example 1.D. Lysates were clarified at 15 000×g at 4° C. for 30 min. 150 μl of proteins were incubated 2 h at 4° C. with 150 μl of streptavidin magnetic beads (MagPrep®, Novagen) pre-incubated 1 h at 4° C. with 10 μg of biotynilated-CC2-LZ and with or without 20 μM of peptides (BA-NLM or BA-DR NLM). Beads were washed 4 times in buffer A (10 mM Hepes pH 7.5, 150 mM NaCl, 8 mM MgCl2, 10% glycerol, 0.1 mM DDM and 1 mM DTE) and resuspended in 30 μl of laemmli buffer containing 6 M Urea. Samples were analysed by Western blotting using anti-ubiquitin antibodies (Sigma) as well as anti-NDPK-B antibodies for loading controls.
Thus, the Inventors examined whether DR NLM impedes the interaction between NEMO and the K63 polyubiquitin chains. To this end, they developed a pull down assay which uses the a peptide comprising the CC2 and the LZ domains of NEMO as a bait to pull down the polyubiquitinylated proteins as described in Example 1.J and depicted in FIG. 7A. […] After extensive washing of beads, all mono and polyubiquitinylated proteins bound to CC2-LZ were analysed by Western blot using anti-ubiquitin antibody (Sigma).

[5] = test system: NF-κB pathway; conditions: cited from earlier work; for IC50 of inhibition of NF-κB activation: reported in WO2005/027959, Agou et al., 2004b
[6] = Circular dichroism and gel filtration, self-association of peptides; format: physicochemical; conditions: peptide concentration up to 100 μM; data not shown
Protocol: Far-UV circular dichroism (CD) measurements were performed with an Aviv 215 spectropolarimeter with samples diluted in 10 mM NaPO4 at pH 7.
Then, unlike the LZ peptide, DR NLM peptide as well as NLM peptide are unable to self-associate. Self association of LZ peptide is described by Agou et al., 2004b.

T2 sequence (O88522 with tags, fused parts or gaps A144V/E216G/S248N/P360T limits assumed): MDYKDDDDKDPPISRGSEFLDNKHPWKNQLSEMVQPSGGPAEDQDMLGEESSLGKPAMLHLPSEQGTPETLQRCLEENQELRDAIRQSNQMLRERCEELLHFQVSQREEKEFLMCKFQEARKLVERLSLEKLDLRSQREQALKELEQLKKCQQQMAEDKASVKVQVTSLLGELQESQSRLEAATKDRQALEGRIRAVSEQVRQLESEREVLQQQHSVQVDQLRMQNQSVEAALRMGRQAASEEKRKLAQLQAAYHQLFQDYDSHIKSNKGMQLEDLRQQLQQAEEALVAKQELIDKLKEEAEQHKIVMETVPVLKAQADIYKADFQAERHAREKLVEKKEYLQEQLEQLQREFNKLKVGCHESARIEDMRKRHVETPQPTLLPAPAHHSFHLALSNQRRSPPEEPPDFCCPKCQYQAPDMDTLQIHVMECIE
T1 sequence (O88522 253-336): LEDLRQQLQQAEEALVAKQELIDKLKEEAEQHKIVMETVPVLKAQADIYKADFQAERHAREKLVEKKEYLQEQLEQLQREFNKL
T4 sequence (O88522 253-336): as above

Q: Which Kd [1] does the source give for `CC[C@H](C)[C@H](NC(=O)[C@H](CC(=O)O)NC(=O)[C@H](C)NC(=O)[C@H](CCC(N)=O)NC(=O)[C@H](C)NC(=O)[C@H](CCCCN)NC(=O)[C@H](CC(C)C)NC(=O)[C@H](CCCCN)NC(=O)[C@H](CCCCN)NC(=O)[C@H](Cc1c[nH]c2ccccc12)NC(=O)[C@H](CCCCN)NC(=O)[C@H](CCSC)NC(=O)[C@H](CCCNC(=N)N)NC(=O)[C@H](CCCNC(=N)N)NC(=O)[C@H](CC(N)=O)NC(=O)[C@H](CCC(N)=O)NC(=O)[C@H](Cc1ccccc1)NC(=O)[C@H](Cc1c[nH]c2ccccc12)NC(=O)[C@@H](NC(=O)[C@H](CCCCN)NC(=O)[C@@H](NC(=O)[C@H](CCC(N)=O)NC(=O)[C@H](CCCNC(=N)N)NC(=O)[C@H](CSC1CC(=O)N(CCNC(=O)CCC2=[N+]3C(=Cc4c(C)cc(C)n4[B-]3(F)F)C=C2)C1=O)NC(C)=O)[C@@H](C)CC)[C@@H](C)CC)C(=O)N[C@@H](Cc1ccc(O)cc1)C(=O)N[C@@H](CCCCN)C(=O)N[C@@H](C)C(=O)N[C@@H](CCCNC(=N)N)C(=O)N[C@@H](Cc1ccccc1)C(=O)N[C@@H](CCC(N)=O)C(=O)N[C@@H](C)C(=O)N[C@@H](CCC(=O)O)C(=O)N[C@@H](CCCNC(=N)N)C(=O)N[C@@H](Cc1c[nH]cn1)C(=O)N[C@@H](C)C(=O)N[C@@H](CCCNC(=N)N)C(=O)N[C@@H](CCC(=O)O)C(=O)N[C@@H](CCCCN)C(N)=O` (stereo partly shown) [BA-DR NLM] (Ac-C(BODIPYFLEthylmaleimide)RQIKIWFQNRRMKWKKLKAQADIYKARFQAERHAREK-NH2; N-terminus and C-terminus assumed) here?
A: 17 µM

Q: And the “amount of NEMO oligomers (fluorescent NEMO subunit recovered)” value (“amount of NEMO oligomers” below) [2]?
A: same amount of NEMO oligomers in the absence or in the presence

Q: For `CC[C@H](C)[C@H](NC(=O)[C@H](CC(=O)O)NC(=O)[C@H](C)NC(=O)[C@H](CCC(N)=O)NC(=O)[C@H](C)NC(=O)[C@H](CCCCN)NC(=O)[C@H](CC(C)C)NC(=O)[C@H](CCCNC(=N)N)NC(=O)[C@H](CCCNC(=N)N)NC(=O)[C@H](CCCNC(=N)N)NC(=O)[C@H](CCCNC(=N)N)NC(=O)[C@H](CCCNC(=N)N)NC(=O)[C@H](CCCNC(=N)N)NC(=O)[C@H](CCCNC(=N)N)NC(=O)[C@H](CSC1CC(=O)N(CCNC(=O)CCC2=[N+]3C(=Cc4c(C)cc(C)n4[B-]3(F)F)C=C2)C1=O)NC(C)=O)C(=O)N[C@@H](Cc1ccc(O)cc1)C(=O)N[C@@H](CCCCN)C(=O)N[C@@H](C)C(=O)N[C@@H](CCCNC(=N)N)C(=O)N[C@@H](Cc1ccccc1)C(=O)N[C@@H](CCC(N)=O)C(=O)N[C@@H](C)C(=O)N[C@@H](CCC(=O)O)C(=O)N[C@@H](CCCNC(=N)N)C(=O)N[C@@H](Cc1c[nH]cn1)C(=O)N[C@@H](C)C(=O)N[C@@H](CCCNC(=N)N)C(=O)N[C@@H](CCC(=O)O)C(=O)N[C@@H](CCCCN)C(N)=O` (stereo partly shown) [BR7-DR NLM] (Ac-C(BODIPYFLEthylmaleimide)RRRRRRRLKAQADIYKARFQAERHAREK-NH2; N-terminus and C-terminus assumed), which Kd [1] is on record?
A: 21 µM

Q: With `CC[C@H](C)[C@H](NC(=O)[C@H](CC(=O)O)NC(=O)[C@H](C)NC(=O)[C@H](CCC(N)=O)NC(=O)[C@H](C)NC(=O)[C@H](CCCCN)NC(=O)[C@H](CC(C)C)NC(C)=O)C(=O)N[C@@H](Cc1ccc(O)cc1)C(=O)N[C@@H](CCCCN)C(=O)N[C@@H](C)C(=O)N[C@@H](CC(=O)O)C(=O)N[C@@H](Cc1ccccc1)C(=O)N[C@@H](CCC(N)=O)C(=O)N[C@@H](C)C(=O)N[C@@H](CCC(=O)O)C(=O)N[C@@H](CCCNC(=N)N)C(=O)N[C@@H](Cc1c[nH]cn1)C(=O)N[C@@H](C)C(=O)N[C@@H](CCCNC(=N)N)C(=O)N[C@@H](CCC(=O)O)C(=O)N[C@@H](CCCCN)C(N)=O` [NLM] (Ac-LKAQADIYKADFQAERHAREK-NH2; N-terminus and C-terminus assumed) as the compound, how does the “cooperativity index (Hill coefficient) n” value [3] read?
A: 8

Q: What about the Kd ([3]; read-out: dissociation constant for Lys63-linked polyubiquitin chains) of the same compound?
A: 180 µM

Q: And the “inhibition of CC2-LZ interaction with polyubiquitinylated proteins” value [4]?
A: no inhibition was observed

Q: And the “inhibition of NF-κB activation” value ([5]; reported in WO 2005/027959)?
A: inhibit NF-κB activation

Q: What about the “oligomeric state / self-association” value [6] of the same compound?
A: behave as monomer

Q: Which “amount of NEMO oligomers” value [2] does the source give for “BA-LZ L322P/L329P: BA-LZ bearing a double mutation within the coiled-coil interface, SEQ ID NO: 22 (C(Bodipy)RQIKIWFQNRRMKWKKLKAQADIYKADFQAERHAREKLVEKKEYPQEQLEQPQREFNKL; reading uncertain)” here?
A: no dissociation of NEMO oligomers was observed

Q: Which “amount of NEMO oligomers” value [2] does the source give for “BA-LZ: Bodipy-antennapedia tagged LZ peptide, SEQ ID NO: 4 (human 5) (C(Bodipy)RQIKIWFQNRRMKWKKLKAQADIYKADFQAERHAREKLVEKKEYLQEQLEQLQREFNKL; reading uncertain)” here?
A: strong decrease in the amount of fluorescent NEMO subunit

Q: Which “amount of NEMO oligomers” value [2] does the source give for “BA-NLM: NLM fused at N-terminus with antennapedia and conjugated with bodipy (C(Bodipy)RQIKIWFQNRRMKWKKLKAQADIYKADFQAERHAREK; reading uncertain)” here?
A: same amount of NEMO oligomers in the absence or in the presence

Q: For “LKAQADIYKADFQAERHAREKLVEKKEYLQEQLEQLQREFNKL [spLZ]”, which “IC50 of inhibition of NF-κB activation” value [5] is on record?
A: in the μM range

Q: With “SKGMQLEDLRQQLQQAEEALVAKQELIDKLKEEAEQHKIV [spCC2]” as the compound, how does the “IC50 of inhibition of NF-κB activation” value [5] read?
A: in the μM range
